# Assay results as given in PubChem BioAssay AID624000 (Vanderbilt Specialized Chemistry Center, 2012).
# Target: Phospholipase D2 (Homo sapiens) + Phospholipase D2 (Homo sapiens) (UniProt O14939+O14939)
# Assay: phospholipase D2 biochemical inhibition IC50 – assay 3B, library 32, dose response (AID 624000)
# Conditions: purified PLD2 enzyme activity
# Phospholipase D2 (Homo sapiens) + Phospholipase D2 (Homo sapiens), sequence (O14939 whole entry, looked up): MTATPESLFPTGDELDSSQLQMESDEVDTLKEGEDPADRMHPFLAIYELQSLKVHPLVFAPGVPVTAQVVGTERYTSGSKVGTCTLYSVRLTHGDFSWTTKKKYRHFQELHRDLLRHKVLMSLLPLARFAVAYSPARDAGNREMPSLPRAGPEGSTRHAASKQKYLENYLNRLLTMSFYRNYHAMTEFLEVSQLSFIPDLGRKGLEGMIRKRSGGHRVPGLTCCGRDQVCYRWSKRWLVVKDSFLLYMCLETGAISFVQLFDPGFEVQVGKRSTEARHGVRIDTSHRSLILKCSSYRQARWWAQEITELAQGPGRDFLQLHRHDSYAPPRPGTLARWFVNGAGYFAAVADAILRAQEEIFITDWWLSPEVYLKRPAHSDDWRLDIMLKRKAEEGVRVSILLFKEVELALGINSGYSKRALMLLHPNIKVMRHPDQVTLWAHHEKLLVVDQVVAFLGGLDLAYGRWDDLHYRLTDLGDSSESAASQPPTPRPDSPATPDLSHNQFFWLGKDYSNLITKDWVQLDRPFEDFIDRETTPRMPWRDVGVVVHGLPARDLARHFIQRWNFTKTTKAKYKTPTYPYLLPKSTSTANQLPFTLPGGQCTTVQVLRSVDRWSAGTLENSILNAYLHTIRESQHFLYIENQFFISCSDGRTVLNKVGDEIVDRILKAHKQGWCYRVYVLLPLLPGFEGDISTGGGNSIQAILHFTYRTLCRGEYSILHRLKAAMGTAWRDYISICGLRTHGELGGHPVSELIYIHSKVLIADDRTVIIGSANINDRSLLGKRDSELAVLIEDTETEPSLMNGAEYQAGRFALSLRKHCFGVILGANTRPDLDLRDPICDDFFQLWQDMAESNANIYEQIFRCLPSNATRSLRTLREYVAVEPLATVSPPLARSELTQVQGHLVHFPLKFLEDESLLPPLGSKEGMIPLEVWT
# Phospholipase D2 (Homo sapiens) + Phospholipase D2 (Homo sapiens), sequence (O14939 whole entry, looked up): as above
row,SMILES,IC50 [nM]
1,C[C@@H](CN1CCC2(CC1)C(=O)NCN2c1cccc(F)c1)NC(=O)c1ccc(Br)cc1,84
2,COc1cc(C(=O)NCCN2CCC3(CC2)C(=O)NCN3c2cccc(F)c2)cc(OC)c1OC,1430
